Data reported in US8497276B2, “Substituted indolo-piperidine compounds” (ArQule, Inc., priority 2009, dated 2013).

Columns and labels:
DLD-1 = assay: MTS Assay (cell growth inhibition), DLD-1; format: cell-based; conditions: DLD-1 cells, 72 hours with test compound; concentration not given
Description: (§1) Cells were maintained at 37° C., 5% CO2 in DMEM media supplemented with 1% fetal bovine serum, penicillin/streptomycin and fungizone (Invitrogen). Cells were seeded into 96-well tissue culture plates at 3000 per well and cultured at 37° C. for 18 hours. Test compounds were dissolved and diluted to 300× in DMSO then diluted 1:40 in DMEM. Cells were incubated with test compounds for 72 hours followed by incubation with tetrazolium compound (3-(4,5-dimethylthiazol-2-yl)-5-(3-carboxymethoxyphenyl)-2-(4-sulfophenyl)-2H-tetrazolium, inner salt; MTS) and the electron coupling reagent, phenazine methosulfate (PMS) for 4 hours. […] The ability of compounds to inhibit cell growth in this assay is correlated with the reduction of dehydrogenase enzyme activity found in metabolically active cells. The measurement of the absorbance of the formazan was assessed using an ENVISION™ (Perkin Elmer) microplate reader at 492 nm. The calculated IC50 value is the concentration of the test compound that causes a 50% decrease in the absorbance.

PC-3 = assay: MTS Assay (cell growth inhibition), PC-3; format: cell-based; conditions: PC-3 cells, 72 hours with test compound; concentration not given
Description: as §1

NCI-H1299 = assay: MTS Assay (cell growth inhibition), NCI-H1299; format: cell-based; conditions: NCI-H1299 cells, 72 hours with test compound; concentration not given
Description: as §1

PACA-2 = assay: MTS Assay (cell growth inhibition), PACA-2; format: cell-based; conditions: PACA-2 cells, 72 hours with test compound; concentration not given
Description: as §1

Kato III = assay: MTS Assay (cell growth inhibition), Kato III; format: cell-based; conditions: Kato III cells, 72 hours with test compound; concentration not given
Description: as §1

MDA-MB 231 = assay: MTS Assay (cell growth inhibition), MDA-MB 231; format: cell-based; conditions: MDA-MB 231 cells, 72 hours with test compound; concentration not given
Description: as §1

Tec kinase = target: T1, Tec kinase (Homo sapiens, UniProt P42680); assay: Tec Kinase Activity Assay; format: biochemical; conditions: 75 μM ATP, Pyk-2 substrate; compound concentration not given
T1 sequence (P42680 1-631): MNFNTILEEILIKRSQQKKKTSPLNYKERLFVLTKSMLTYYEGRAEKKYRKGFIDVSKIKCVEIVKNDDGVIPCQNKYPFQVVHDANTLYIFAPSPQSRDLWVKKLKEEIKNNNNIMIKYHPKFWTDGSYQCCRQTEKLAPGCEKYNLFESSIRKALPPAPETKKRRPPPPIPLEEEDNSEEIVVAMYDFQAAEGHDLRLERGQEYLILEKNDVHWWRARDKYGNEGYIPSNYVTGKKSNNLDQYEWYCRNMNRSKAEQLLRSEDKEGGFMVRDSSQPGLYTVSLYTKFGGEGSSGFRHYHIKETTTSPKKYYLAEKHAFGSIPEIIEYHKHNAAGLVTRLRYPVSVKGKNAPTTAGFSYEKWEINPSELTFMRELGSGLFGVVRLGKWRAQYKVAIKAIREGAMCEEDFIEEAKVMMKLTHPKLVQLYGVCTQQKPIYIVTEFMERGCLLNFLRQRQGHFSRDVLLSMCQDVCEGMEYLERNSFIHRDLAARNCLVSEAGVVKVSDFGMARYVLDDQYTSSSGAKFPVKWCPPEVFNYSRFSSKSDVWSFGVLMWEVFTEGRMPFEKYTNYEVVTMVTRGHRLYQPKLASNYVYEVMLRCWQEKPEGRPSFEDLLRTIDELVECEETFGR
Description: The disclosed compounds were assayed for their ability to inhibit the activity of Tec kinase. Nunc Maxisorb plates were coated with streptavidin by overnight incubation with 100 μl per well of 1 μg/ml Streptavidin in DPBS. Prior to the start of the experiment, the plates were washed with TBST (3×200 μl) and blocked for at least 1 hour by adding 150 μl of 5% BSA/TBST. The plates were then washed with TBST (3×200 μl/well) and left dry immediately before the capture step.
The disclosed test compounds and controls (Staurosporine and Sutent) were prepared using the following assay buffer (50 mM Tris-HCl, 0.02 mg/ml BSA, 10 mM MgCl2, 0.1 mM Na3VO4, 1 mM EGTA, 75 μM ATP, 0.01% NP-40, 2 mM DTT in 10% glycerol/water) at 3× desired final concentration. 20 μl of the test compounds (or control) and 20 μl TEC (0.25 ng/μl) were rapidly added to a reaction plate. The plate was incubated for 30 minutes. 20 μl of Pyk-2 (0.5 ng/μl) was then added to the reaction plate. The plate was incubated at room temperature for two hours.
50 μl was transferred from the reaction plate to the streptavidin coated plate. The capture plate was incubated at room temperature for 30 minutes then washed with TBST 6 times. 100 μl/well of Cell Signaling anti-phospho tyrosine was added to the capture plate at a dilution of 1:3000 in 2% BSA/TBST. The plate was incubated for one hour at room temperature then washed with TBST 6 times. 100 μl/well of alkaline phosphatase tagged goat anti-mouse antibody was added to the capture plate at a dilution of 1:4000 in 2% BSA/TBST. The plate was incubated for one hour at room temperature then washed with TBST 6 times.
The fluorescent readout was initiated by the addition of 100 μl/well of Attophos reagent (6 mg/10 ml) and the reading was done on the Perkin Elmer Envision system.

Biochemical IC50 (% inhibition) Tec (Tec kinase)	Structure (SMILES)	MTS cell kill data (% inhibition) DLD-1 (DLD-1)	MTS cell kill data (% inhibition) PC-3 (PC-3)	MTS cell kill data (% inhibition) NCI-H1299 (NCI-H1299)	MTS cell kill data (% inhibition) PACA-2 (PACA-2)	MTS cell kill data (% inhibition) Kato III (Kato III)	MTS cell kill data (% inhibition) MDA-MB 231 (MDA-MB 231)
–	Brc1n[nH]c2ncnc(N3CCc4c([nH]c5ccccc45)C3)c12 [Compound 1, 2-(3-bromo-1H-pyrazolo[3,4-d]pyrimidin-4-yl)-2,3,4,9-tetrahydro-1H-beta-carboline]	B (B = 50-79% inhibition)	C (C = <50% inhibition)	B (B = 50-79% inhibition)	B (B = 50-79% inhibition)	A (A = 80-100% inhibition)	C (C = <50% inhibition)
C (C = <50% inhibition)	Fc1c(Cl)cccc1C1c2[nH]c3ccccc3c2CCN1c1ncnc2[nH]ccc12 (stereo not drawn) [Compound 2, 1-(3-chloro-2-fluorophenyl)-2-(7H-pyrrolo[2,3-d]pyrimidin-4-yl)-2,3,4,9-tetrahydro-1H-beta-carboline]	A (A = 80-100% inhibition)	A (A = 80-100% inhibition)	A (A = 80-100% inhibition)	A (A = 80-100% inhibition)	A (A = 80-100% inhibition)	A (A = 80-100% inhibition)
C (C = <50% inhibition)	Fc1c(Cl)cccc1C1c2[nH]c3ccccc3c2CCN1c1ncnc2[nH]cnc12 (stereo not drawn) [Compound 3, 1-(3-chloro-2-fluorophenyl)-2-(9H-purin-6-yl)-2,3,4,9-tetrahydro-1H-beta-carboline]	B (B = 50-79% inhibition)	C (C = <50% inhibition)	B (B = 50-79% inhibition)	C (C = <50% inhibition)	B (B = 50-79% inhibition)	C (C = <50% inhibition)
B (B = 50-79% inhibition)	Fc1ccc(C2c3[nH]c4ccccc4c3CCN2c2ncnc3[nH]ccc23)cc1 (stereo not drawn) [Compound 4, 1-(4-fluorophenyl)-2-(7H-pyrrolo[2,3-d]pyrimidin-4-yl)-2,3,4,9-tetrahydro-1H-beta-carboline]	B (B = 50-79% inhibition)	C (C = <50% inhibition)	B (B = 50-79% inhibition)	B (B = 50-79% inhibition)	B (B = 50-79% inhibition)	C (C = <50% inhibition)
C (C = <50% inhibition)	Fc1ccc(C2c3[nH]c4ccccc4c3CCN2c2ncnc3[nH]cnc23)cc1 (stereo not drawn) [Compound 5, 1-(4-fluorophenyl)-2-(9H-purin-6-yl)-2,3,4,9-tetrahydro-1H-beta-carboline]	C (C = <50% inhibition)	A (A = 80-100% inhibition)	B (B = 50-79% inhibition)	C (C = <50% inhibition)	A (A = 80-100% inhibition)	A (A = 80-100% inhibition)
B (B = 50-79% inhibition)	Fc1ccc(C2c3[nH]c4ccccc4c3CCN2c2ncnc3[nH]ncc23)cc1 (stereo not drawn) [Compound 6, 1-(4-fluorophenyl)-2-(1H-pyrazolo[3,4-d]pyrimidin-4-yl)-2,3,4,9-tetrahydro-1H-beta-carboline]	B (B = 50-79% inhibition)	C (C = <50% inhibition)	B (B = 50-79% inhibition)	B (B = 50-79% inhibition)	A (A = 80-100% inhibition)	A (A = 80-100% inhibition)
C (C = <50% inhibition)	Nc1nc(N2CCc3c([nH]c4ccccc34)C2c2cccc(C(F)(F)F)c2)c2cn[nH]c2n1 (stereo not drawn) [Compound 7, 4-{1-[3-(trifluoromethyl)phenyl]-1,3,4,9-tetrahydro-2H-beta-carbolin-2-yl}-1H-pyrazolo[3,4-d]pyrimidin-6-amine]	C (C = <50% inhibition)	A (A = 80-100% inhibition)	C (C = <50% inhibition)	C (C = <50% inhibition)	C (C = <50% inhibition)	B (B = 50-79% inhibition)
C (C = <50% inhibition)	FC(F)(F)c1cccc(C2c3[nH]c4ccccc4c3CCN2c2ncnc3[nH]cnc23)c1 (stereo not drawn) [Compound 8, 2-(9H-purin-6-yl)-1-[3-(trifluoromethyl)phenyl]-2,3,4,9-tetrahydro-1H-beta-carboline]	A (A = 80-100% inhibition)	A (A = 80-100% inhibition)	A (A = 80-100% inhibition)	B (B = 50-79% inhibition)	A (A = 80-100% inhibition)	A (A = 80-100% inhibition)
B (B = 50-79% inhibition)	FC(F)(F)c1cccc(C2c3[nH]c4ccccc4c3CCN2c2ncnc3[nH]ncc23)c1 (stereo not drawn) [Compound 9, 2-(1H-pyrazolo[3,4-d]pyrimidin-4-yl)-1-[3-(trifluoromethyl)phenyl]-2,3,4,9-tetrahydro-1H-beta-carboline]	B (B = 50-79% inhibition)	C (C = <50% inhibition)	B (B = 50-79% inhibition)	B (B = 50-79% inhibition)	B (B = 50-79% inhibition)	B (B = 50-79% inhibition)
C (C = <50% inhibition)	Cc1cccc(C2c3[nH]c4ccccc4c3CCN2c2ncnc3[nH]ccc23)c1 (stereo not drawn) [Compound 10, 1-(3-methylphenyl)-2-(7H-pyrrolo[2,3-d]pyrimidin-4-yl)-2,3,4,9-tetrahydro-1H-beta-carboline]	B (B = 50-79% inhibition)	C (C = <50% inhibition)	B (B = 50-79% inhibition)	B (B = 50-79% inhibition)	B (B = 50-79% inhibition)	C (C = <50% inhibition)
